In ChEMBL document CHEMBL1142232, “Inhibition of spinal microglial cathepsin S for the reversal of neuropathic pain” (Proc Natl Acad Sci U S A, 2007) one finds Activity data, which are given here for three molecules.

Series [1] deals with Rattus norvegicus. Briefly: Inhibition of rat recombinant cathepsin S-induced hyperalgesia in naive Wistar rat at 50 nmol administered 30 mins before cathepsin S challenge. Format: functional, organism-based.
The species named for series [2] is Rattus norvegicus. Briefly: Inhibition of rat recombinant cathepsin S-induced hyperalgesia in Wistar rat at 50 ug. The series is classed as functional, organism-based.
Series [3] concerns Rattus norvegicus. Briefly: Antinociceptive activity in intrathecally dosed Wistar rat partial ligation of sciatic nerve 3-day neuropathic pain model assessed as alteration of mechanical allodynia at 50 nmol. Format: functional, organism-based.
Series [4] relates to Rattus norvegicus. Briefly: Analgesic activity in intrathecally dosed Wistar rat partial ligation of sciatic nerve neuropathic pain model assessed as reduction of mechanical hyperalgesia at 50 nmol after 14 days. The series is classed as functional, organism-based.
Series [5] has as its system Rattus norvegicus. Briefly: Analgesic activity in intrathecally dosed Wistar rat partial ligation of sciatic nerve neuropathic pain model assessed as attenuation of allodynia at 50 nmol after 7 days. The series is classed as functional, organism-based.
Series [6] has as its system Rattus norvegicus. Briefly: Analgesic activity in intrathecally dosed Wistar rat partial ligation of sciatic nerve neuropathic pain model assessed as attenuation of allodynia at 50 nmol after 14 days. Format: functional, organism-based.
The test system of series [7] is Rattus norvegicus. Briefly: Analgesic activity in intrathecally dosed Wistar rat partial ligation of sciatic nerve neuropathic pain model assessed as reduction of mechanical hyperalgesia at 10 nmol after 14 days. Format: functional, organism-based.
The test system of series [8] is Rattus norvegicus. Briefly: Effect on contralateral mechanical thresholds in intrathecally dosed Wistar rat partial ligation of sciatic nerve neuropathic pain model. The series is classed as functional, organism-based.
Series [9] is filed under the species Rattus norvegicus. Briefly: Toxicity in Wistar rat assessed as effect on motor behavior by rotarod test. The series is classed as organism-based. To be noted: in vivo.
The species named for series [10] is Rattus norvegicus. Briefly: Reduction of microglial activation in Wistar rat partial ligation of sciatic nerve neuropathic pain model at 30 nmol. Format: functional, organism-based.
The species named for series [11] is Rattus norvegicus. Briefly: Analgesic activity in Wistar rat partial ligation of sciatic nerve model of neuropathic pain assessed as reversal of allodynia at 30 nmol after 3 to 5 days. Format: functional, organism-based.
Series [12] is filed under the species Rattus norvegicus. Briefly: Analgesic activity in Wistar rat partial ligation of sciatic nerve model of neuropathic pain assessed as reversal of allodynia at 30 nmol after 7 days. The series is classed as functional, organism-based.
The species entered for series [13] is Rattus norvegicus. Briefly: Effect on sarcosine-induced hyperalgesia in Wistar rat. The series is classed as functional, organism-based.
The species named for series [14] is Rattus norvegicus. Briefly: Effect on NMDA-induced hyperalgesia in Wistar rat. Format: functional, organism-based.

Active and inactive are the calls of the source. Where a SMILES comes first, the peptide text is derived from it. [ ]: non-standard residue; d: D form. Oic = O=C(O)[C@@H]1C[C@@H]2CCCC[C@@H]2N1; Hyp = O=C(O)[C@@H]1C[C@@H](O)CN1; dTic = O=C(O)[C@H]1Cc2ccccc2CN1; 2Thi = N[C@@H](Cc1cccs1)C(=O)O

In the case of `N=C(N)NCCC[C@@H](N)C(=O)N[C@@H](CCCNC(=N)N)C(=O)N1CCC[C@H]1C(=O)N1C[C@H](O)C[C@H]1C(=O)NCC(=O)N[C@@H](Cc1cccs1)C(=O)N[C@@H](CO)C(=O)N1Cc2ccccc2C[C@@H]1C(=O)N1[C@H](C(=O)O)C[C@@H]2CCCC[C@@H]21` (H-[dR]RP[Hyp]G[2Thi]S[dTic][Oic]-OH), the result in the series on Rattus norvegicus [1] and in the series filed under Rattus norvegicus [2] was inactive.
In the case of `N=C(N)NCCC[C@@H](N)C(=O)N[C@@H](CCCNC(=N)N)C(=O)N1CCC[C@H]1C(=O)N1C[C@H](O)C[C@H]1C(=O)NCC(=O)N[C@@H](Cc1cccs1)C(=O)N[C@@H](CO)C(=O)N1Cc2ccccc2C[C@@H]1C(=O)N1[C@H](C(=O)N[C@@H](CCCNC(=N)N)C(=O)O)C[C@@H]2CCCC[C@@H]21`, the result with Rattus norvegicus [1] and in the series listed under Rattus norvegicus [2] was inactive.
With `CC(C)C[C@@H](NC(=O)N1CCOCC1)C(=O)N[C@@H](/C=C/S(=O)(=O)c1ccccc1)CCc1ccccc1`, the result with Rattus norvegicus [3], in the series on Rattus norvegicus [8], in the series filed under Rattus norvegicus [11], in the series filed under Rattus norvegicus [13], in the series with Rattus norvegicus [1] and in the series listed under Rattus norvegicus [14] was inactive. The outcome in the series on Rattus norvegicus [4], in the series on Rattus norvegicus [5], with Rattus norvegicus [6], in the series on Rattus norvegicus [7], in the series filed under Rattus norvegicus [10] and in the series filed under Rattus norvegicus [12] was Active. Besides, in the series listed under Rattus norvegicus [9], the Activity result is given as “Non-toxic”.
